The text below walks through data of ChEMBL document CHEMBL1150729, “Constituents of Paramichelia baillonii: a new antitumor germacranolide alkaloid” (1987).

The structures appear in SMILES notation. Values after ≈ are worked out from the molar mass of the structure shown. Active and inactive are the calls of the source. The calls are words filed in the database; no cut-off is given here.

Holding throughout (format): functional
For one assay, the system named is 9KB. In words: (§1) Cytotoxicity against human 9KB cells.
Assay [1] is described as follows: Cytotoxicity against human Laryngeal epidermoid carcinoma cells. To be noted: read-out: ED50 (the source's name).
Assay [2] can be described thus: as §1. To be noted: read-out: ED50 (the source's name).
The test system of another assay is KB. In words: Cytotoxicity against human KB cells. Conditions: read-out: ED50 (the source's name).

With `C/C1=C\CC[C@@]2(C)O[C@H]2[C@H]2OC(=O)[C@@H](C)[C@@H]2CC1`, the result in the assay with 9KB was inactive.

Consider `C=C1C(=O)O[C@@H]2C3O[C@]3(C)CC/C=C(\C)CC[C@@H]12` (stereo not given in full), for which the EC50 in assay [1] stood at 0.76 µg/mL (≈ 3.06 µM); in assay [2], 0.45 µg/mL (≈ 1.81 µM).

As for `C/C1=C\CC[C@@]2(C)O[C@H]2[C@H]2OC(=O)[C@@H](CNC[C@@H]3C(=O)O[C@H]4[C@H]3CC/C(C)=C/CC[C@@]3(C)O[C@@H]43)[C@@H]2CC1`, the EC50 with KB was found to be 0.6 µg/mL (≈ 1.17 µM).

On to `O=C1c2ccccc2-c2c3c(cc4ccnc1c24)OCO3` [LIRIODENINE], for which the EC50 in assay [2] was found to be 1.6 µg/mL (≈ 5.81 µM).
